Test results taken from patent publication US20240166695A1, “PEPTIDIC POSITIVE ALLOSTERIC MODULATORS TARGETING TRPV1” (priority 2021, published 2024).

Key:
[1] = tested on: rats; test: Heat pain test, paw withdrawal latency after intraplantar injection; type: in vivo, Sprague-Dawley rats; conditions: for paw withdrawal latency / analgesic effect: intradermal hind paw injection, 100 μl, capsaicin 150 μM alone or with MRS1477 50 μM or TAT-De3 150 μM
Protocol: Animals. Male Sprague-Dawley rats (200-250 g, Charles River Laboratories, Inc.) were housed under a 12 h light-dark cycle and allowed access to food and water ad libitum. The ambient temperature of the holding and testing; rooms was ˜22° C. All procedures involving animals were carried out in strict compliance with the National Institutes of Health and institutional guidelines for the humane care of animals and were approved by the Animal Care and Use Committee of Zhejiang University (Approval ID: ZJU20190100). All efforts were made to minimize both animal numbers and distress within the experiments.
Animal behavioral measurements. A 10 mM stock solution of MRS1477 was prepared in 100% DMSO and further diluted in vehicle to 2 μg/100 μl (50 μM). […] Capsaicin-only injectates contained an equal amount of DMSO as those with MRS1477. All intraplantar injections were made using a. 29 G×½″, 3/10 cc insulin syringe. The experimenter was blinded to the identity of the injectates in the various behavioral experiments.
Thermal hyperalgesia measurement was performed as reported previously (11, 35). Briefly, unrestrained rats were placed on a clear glass platform which a light beam was applied onto the plantar hind paws of the animals under a small plastic cage which allowed them to move freely. The thermal nociceptive response was defined as the latency between light stimulus onset and paw withdrawal using a feedback-controlled shutdown unit. The intensity of the light stimulus was set such that naive rats responded with a latency of approximately 5 s. Each paw was tested one time. In the absence of a response within a predetermined maximum latency (30 s), the test was terminated to prevent tissue damage. On the day of testing, rats were allowed to habituate for at least 30 min prior to thermal stimulation. […]
We observed significant analgesic effects of TAT-De3 intradermally injected into the hind paw of rats against thermal pain. […] We recorded paw withdrawal latency to reflect the pain sensation. […]

[2] = Body temperature measured in the course of heat pain tests; conditions: rats, injection of PAM in heat pain tests
[3] = tested on: TRPV1; test: Calcium imaging (Fluo-4) of capsaicin activation in transfected HEK293 cells; type: cell-based; conditions: 0.5 nM capsaicin; cells expressing only TRPV1
Protocol: We then investigated whether, upon binding of the designed proteins, TRPV1 activation was positively modulated. […] Probenecid (2 mM) was included in all solutions to prevent Fluo-4 leakage from cells. At the end of incubation, cells were washed three times with ECS and incubated in the same solution for another 20 min at room temperature to complete the intracellular hydrolysis process of the AM ester, which converts the non-fluorescent Fluo-4/AM into the fluorescent version Fluo-4.
Coverslip with dye-loaded cells was placed in the quick-release magnetic chamber (Warner) and mounted on the stage of a Nikon Eclipse TE2000-U microscope system equipped with a Roper Cascade 128B CCD camera. Fluo-4 was excited by an Argon laser with a filter set of Z488/10 (excitation), z488rdc (dichroic) and recorded through an emission filter HQ5001p (all from Chroma). The duration of light exposure was controlled by a computer-driven mechanical shutter (Uniblitz). Cell images were acquired sequentially with an exposure period of 200 ms at an interval of 1 s. The shutter and the camera were controlled and synchronized by MetaMorph software (Universal Imaging).

Compound | duration of analgesic effects after a single injection ([1]; co-injected with capsaicin 150 μM) | paw withdrawal latency / analgesic effect [1] | hyperthermia (body temperature) [2] | calcium influx [3]
CCOC(=O)C1=C(c2ccccc2)NC(C)=C(C(=O)SCCOC)C1CC (centres unmarked) [MRS1477] | diminished after three days | paw withdrawal latency was increased | did not cause hyperthemia | –
COc1cc(CNC(=O)CCCC/C=C/C(C)C)ccc1O [capsaicin, reference compound] | – | no change in the paw withdrawal latency | – | did not illicit calcium influx
